From ChEMBL document CHEMBL4732123, “Discovery of 7-aminophenanthridin-6-one as a new scaffold for matrix metalloproteinase inhibitors with multitarget neuroprotective activity” (Eur J Med Chem, 2021)
The source made the active and inactive calls. The rule behind the calls is not given here.

Legend:
[1] = target: 72 kDa type IV collagenase (Homo sapiens, UniProt P08253); test: Inhibition of recombinant human MMP2 (110 to 452 residues) using Mca-Pro-Leu-Gly-Leu-Dpa-Ala-Arg-NH2 expressed in yeast expression system as substrate incubated for 15 mins followed by substrate addition and measured after 2 to 4 hrs by fluorescence based assay
Chain of 72 kDa type IV collagenase (P08253 whole entry, the tested form may be a part): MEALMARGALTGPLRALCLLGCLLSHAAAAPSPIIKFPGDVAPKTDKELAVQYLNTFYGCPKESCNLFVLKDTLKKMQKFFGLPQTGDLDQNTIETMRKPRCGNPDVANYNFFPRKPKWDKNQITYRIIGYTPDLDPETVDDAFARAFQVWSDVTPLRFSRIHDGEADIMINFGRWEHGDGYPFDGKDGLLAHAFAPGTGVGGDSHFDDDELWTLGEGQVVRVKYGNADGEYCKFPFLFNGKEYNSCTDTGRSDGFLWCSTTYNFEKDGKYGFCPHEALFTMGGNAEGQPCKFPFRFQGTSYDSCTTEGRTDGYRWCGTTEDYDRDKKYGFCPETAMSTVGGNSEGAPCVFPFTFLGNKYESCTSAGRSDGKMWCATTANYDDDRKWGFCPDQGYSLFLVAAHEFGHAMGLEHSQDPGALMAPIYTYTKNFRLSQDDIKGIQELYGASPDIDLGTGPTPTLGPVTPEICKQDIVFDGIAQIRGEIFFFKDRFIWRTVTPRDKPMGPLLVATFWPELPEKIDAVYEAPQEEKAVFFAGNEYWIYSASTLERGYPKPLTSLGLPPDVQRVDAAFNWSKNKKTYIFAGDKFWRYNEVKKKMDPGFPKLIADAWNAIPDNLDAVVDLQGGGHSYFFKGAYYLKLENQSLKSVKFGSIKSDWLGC

Neutrophil collagenase = Neutrophil collagenase (Homo sapiens, UniProt P22894); test: Inhibition of recombinant human MMP8 (99 to 269 residues) using Mca-Pro-Leu-Gly-Leu-Dpa-Ala-Arg-NH2 expressed in Escherichia coli expression system as substrate incubated for 15 mins followed by substrate addition and measured after 2 to 4 hrs by fluorescence based assay
Chain of Neutrophil collagenase (P22894 whole entry, the tested form may be a part): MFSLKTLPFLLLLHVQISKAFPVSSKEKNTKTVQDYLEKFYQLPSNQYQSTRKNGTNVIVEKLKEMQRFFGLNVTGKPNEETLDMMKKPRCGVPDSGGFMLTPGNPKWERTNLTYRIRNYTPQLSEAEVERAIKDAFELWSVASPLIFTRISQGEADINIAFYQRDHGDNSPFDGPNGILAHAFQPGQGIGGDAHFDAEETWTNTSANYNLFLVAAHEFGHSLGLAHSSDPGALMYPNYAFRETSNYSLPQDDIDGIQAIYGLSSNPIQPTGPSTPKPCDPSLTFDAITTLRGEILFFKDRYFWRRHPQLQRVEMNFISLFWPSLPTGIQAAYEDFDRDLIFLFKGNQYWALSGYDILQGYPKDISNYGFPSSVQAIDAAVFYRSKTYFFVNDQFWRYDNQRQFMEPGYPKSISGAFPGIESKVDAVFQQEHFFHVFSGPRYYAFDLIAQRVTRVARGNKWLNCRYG

[2] = target: Matrix metalloproteinase-9 (Homo sapiens, UniProt P14780); test: Inhibition of recombinant human MMP9 (107 to 449 residues) using Mca-Pro-Leu-Gly-Leu-Dpa-Ala-Arg-NH2 expressed in Escherichia coli expression system as substrate incubated for 15 mins followed by substrate addition and measured after 2 to 4 hrs by fluorescence based assay
Chain of Matrix metalloproteinase-9 (P14780 whole entry, the tested form may be a part): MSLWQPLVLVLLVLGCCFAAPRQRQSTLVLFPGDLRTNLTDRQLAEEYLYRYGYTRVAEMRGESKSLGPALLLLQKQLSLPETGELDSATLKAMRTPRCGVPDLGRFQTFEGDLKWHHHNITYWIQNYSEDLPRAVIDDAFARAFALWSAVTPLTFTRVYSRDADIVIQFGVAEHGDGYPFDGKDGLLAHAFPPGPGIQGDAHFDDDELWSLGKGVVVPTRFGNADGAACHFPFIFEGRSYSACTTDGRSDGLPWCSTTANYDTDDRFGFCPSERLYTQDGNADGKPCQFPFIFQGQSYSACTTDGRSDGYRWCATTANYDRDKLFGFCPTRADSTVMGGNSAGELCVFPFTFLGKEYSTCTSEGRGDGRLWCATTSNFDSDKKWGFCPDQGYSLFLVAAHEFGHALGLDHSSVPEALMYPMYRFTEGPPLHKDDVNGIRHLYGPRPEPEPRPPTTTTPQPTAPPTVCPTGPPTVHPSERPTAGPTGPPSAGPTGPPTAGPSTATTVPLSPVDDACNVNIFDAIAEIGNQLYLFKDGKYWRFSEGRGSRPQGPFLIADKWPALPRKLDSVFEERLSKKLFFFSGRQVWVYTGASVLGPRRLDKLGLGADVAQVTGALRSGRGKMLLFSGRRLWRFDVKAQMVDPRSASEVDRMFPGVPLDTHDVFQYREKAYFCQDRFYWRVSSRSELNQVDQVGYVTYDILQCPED

Collagenase 3 = Collagenase 3 (Homo sapiens, UniProt P45452); test: Inhibition of recombinant human MMP13 (104 to 274 residues) using Mca-Pro-Leu-Gly-Leu-Dpa-Ala-Arg-NH2 expressed in Escherichia coli expression system as substrate incubated for 15 mins followed by substrate addition and measured after 2 to 4 hrs by fluorescence based assay
[3] = Cytotoxicity against mouse SN-56 cells assessed as reduction in cell viability upto 100 uM incubated for 24 hrs by MTT assay; type: cell-based; details: sn-56, 24 h
SN-56 [4] = test: Neuroprotective activity against H2O2-induced lipid peroxidation in mouse SN-56 cells assessed as increase in MDA level incubated for 24 hrs by lipid peroxidation MDA assay kit method; type: functional, cell-based
[5] = Neuroprotective activity against H2O2-induced lipid peroxidation in mouse SN-56 cells assessed as increase in MDA level at 1 to 150 uM incubated for 24 hrs by lipid peroxidation MDA assay kit method relative to control; type: functional; details: dose 1-150 µM
SN-56 [6] = test: Neuroprotective activity against H2O2-induced cytotoxicity in mouse SN-56 cells assessed as increase in cell viability at 10 to 100 uM incubated for 24 hrs by MTT assay; type: functional, cell-based; details: dose 10-100 µM

| Structure (SMILES) | IC50 [1] [µM] | IC50 (Neutrophil collagenase) [µM] | IC50 [2] [µM] | IC50 (Collagenase 3) [µM] | Activity [3] | Activity (SN-56 [4]) | Activity [5] [%] | Activity (SN-56 [6]) |
| --- | --- | --- | --- | --- | --- | --- | --- | --- |
| O=c1[nH]c2ccccc2c2cc(-c3ccco3)cc(Nc3ccc(F)cc3)c12 | 45.4 | > 100 | > 100 | > 100 | Non-Toxic | – | – | – |
| Nc1cc(-c2cccs2)cc2c1c(=O)[nH]c1ccccc12 | > 100 | > 100 | > 100 | > 100 | Non-Toxic | Dose-dependent effect | 100 | Active |
| Cn1c(=O)c2c(Nc3ccccc3)cc(-c3ccccc3)cc2c2ccccc21 | > 100 | > 100 | > 100 | > 100 | Non-Toxic | – | – | – |
| O=c1[nH]c2ccccc2c2cc(-c3ccccc3)cc(Nc3ccccc3)c12 | 13 | 69 | 54 | 42 | Non-Toxic | – | – | – |
| O=c1[nH]c2ccccc2c2cc(-c3ccco3)cc(Nc3ccccc3)c12 | 25.4 | > 100 | > 100 | 41.7 | Non-Toxic | Dose-dependent effect | – | – |
| CN(C)c1ccc(Nc2cc(-c3ccccc3)cc3c2c(=O)[nH]c2ccccc23)cc1 | 73 | 84 | 88 | 40 | Non-Toxic | – | – | – |
| Cc1ccc(-c2cc(Nc3ccccc3)c3c(=O)[nH]c4ccccc4c3c2)cc1 | 84.5 | 62 | 37.5 | 41 | Non-Toxic | – | – | – |
| COc1ccc(Nc2cc(-c3ccco3)cc3c2c(=O)[nH]c2ccccc23)cc1 | 9 | 23 | 9 | 15 | Non-Toxic | Dose-dependent effect | – | – |
| CCCCNc1cc(-c2ccccc2)cc2c1c(=O)[nH]c1ccccc12 | 56 | 86 | 99.5 | 60 | Non-Toxic | Dose-dependent effect | 100 | – |
| O=c1[nH]c2ccccc2c2cc(-c3cccs3)cc(Nc3ccc(F)cc3)c12 | 6.8 | 26.5 | 20.1 | 15.8 | Non-Toxic | Dose-dependent effect | 100 | Active |
